Patent US7109160B1, “Peptides containing the motif IGD and their use as cell migration modulators” (University of Dundee, priority 1997, dated 2006)
Entries after “also recorded” stand apart in the source; their conditions may differ.

Experiments:
[1] = tested on: human skin fibroblasts (SK319 and FSF44); assay: Inhibitors of early and late aspects of IGDS activity (pre-incubation protocols, collagen gel assay); format: cell-based; design: key to Inhibitory activity: early events / Inhibitory activity: late events: yes(+); no(−); details: for inhibition at 10 µg/mL: Homo sapiens, Skin fibroblast; for effect on IGDS-induced cell migration (late events), in words / effect on initial IGDS signalling (early events), in words: Table 3
Description: (§1) Migration Assays. In the collagen gel assay, pre-formed 2 ml gels were overlaid with 1 ml of serum-free MEM (controls) or serum-free MEM containing the requisite concentration of effector molecule to give the desired final concentration. Trypsinised fibroblasts were suspended in serum-free MEM to give an inoculum containing 2×10^5 cells/ml and 1 ml of this was plated onto replicate control and test gels.
The specific effects of potential inhibitory molecules on such early and late events were examined by using the following experimental protocol: (a) pre-incubating cells with IGDS (SEQ ID NO 2) and inhibitor and then assaying these treated cells in the absence of both IGDS (SEQ ID NO 2) and inhibitor (note: this protocol provides data concerning the effects of inhibitor on the early events mediating IGDS (SEQ ID NO 2) activity), (b) pre-incubating cells with neither IGDS (SEQ ID NO 2) nor inhibitor and assaying them in the presence of both (the effects of inhibitor on both early and late events), (c) pre-incubating cells with IGDS (SEQ ID NO 2) alone and then assaying them in the presence of inhibitor only (the effects of inhibitor on late events), and finally, (d) pre-incubating cells with inhibitor alone and then assaying them in the presence of IGDS (SEQ ID NO 2) to provide control information regarding possibly persistent effects of inhibitor which would confound data interpretation. Data presented in Table IA are concerned with the effects of the synthetic RGDS (SEQ ID NO 6) and RGES (SEQ ID NO 5).

[2] = tested on: human skin fibroblasts (SK319 and FSF44); assay: Native collagen gel migration assay; format: cell-based; details: for effect on cell migration into native type I collagen gels: human dermal fibroblasts, 4-day incubation, FIG. 1
Description: Assays were performed as described in Materials and Methods in Example 1. Results are normalised by expressing them as “relative stimulation” of migration, this being calculated by dividing the percentage of cells in the gel matrix for each experimental point by the control value obtained in that particular experiment. Data are presented as the mean ±SD of five experiments. For clarity, the shaded area indicates the spread of standard deviations for data points not plotted with error bars. Upper panel: results obtained with the indicated synthetic peptides. Lower panel: results obtained with native fibronectin (FN), and its cell-binding (Cell-BD) and gelatin-binding (Gel-BD) domains.
(§2) Cells. Experiments were performed with two lines of human skin fibroblasts (SK319 and FSF44, between passage 10–18) shown to be free of mycoplasmal contamination by staining with Hoechst 33256. Identical results were obtained with both lines and these cells are consequently not individually identified in the Figures. Stock cultures were maintained in Eagle's Minimal Essential (MEM), as previously described^7.
as §1

rat wound healing model = assay: Rat wound healing model (subcutaneous porcine dermal collagen film implants); format: in vivo; details: 1 μg/ml in collagen film, implanted subcutaneously, 28 days, p < 0.01
Excerpt: In this experimental system, 1 cm^2 pieces of porcine dermal collagen films impregnated with either control medium or medium containing the indicated concentration of test substance were implanted subcutaneously into rats. The animals were sacrificed 28 days later and the removed collagen implants fixed and sectioned for image analysis.

[3] = tested on: human skin fibroblasts (SK319 and FSF44); assay: Transmembrane migration assay (membranes coated with native type I collagen or gelatin); format: cell-based; details: FIG. 2; for effect on cell migration through gelatin-coated membranes: gelatin (heat-denatured type I collagen)-coated membranes; for effect on cell migration through membranes coated with native collagen: native type I collagen-coated membranes
Description: Assays were performed as described in Materials and Methods in Example 1. Results from five experiments are presented as mean ±SD. Shaded area indicates the spread of standard deviations for data points not plotted with error bars. Panel A: results obtained with IGDS (SEQ ID NO 2) and the gelatin-binding domain (Gel-BD) on membranes coated with native collagen and gelatin. Panel B: results obtained with RGDS (SEQ ID NO 6), native fibronectin (FN), and its cell-binding domain (Cell-BD).
as §2
Polycarbonate membranes used in the transmembrane assay were immersed in an aqueous solution containing 10 μg/ml of either native type I collagen or heat-denatured type I collagen (gelatin) overnight at 37° C. and then air-dried. Assays were performed as previously described^7.

[4] = tested on: human skin fibroblasts (SK319 and FSF44); assay: Collagen gel assay with combinations of peptides (co-incubation); format: cell-based
Description: The collagen gel assay was performed in the presence of various combinations of the indicated peptides and the percentage of cells present within the gel matrix measured after a four-day incubation period. Data are expressed as mean ±SD obtained in three experiments. Panel A: combinations of the gelatin-binding domain (Gel-BD) and IGDS (SEQ ID NO 2); Panel B: combinations of IGDS (SEQ ID NO 2) and RGDS (SEQ ID NO 6); Panel C: combinations of IGDS (SEQ ID NO 2) and the cell-binding domain (Cell-BD).
as §1
The possible mechanistic relationship between IGDS (SEQ ID NO 2) and the gelatin-binding domain in which it is contained was further examined by co-incubating cells with suboptimal concentrations of each.
Possible mechanistic interactions between IGDS (SEQ ID NO 2) and RGDS (SEQ ID NO 6) were studied in similar co-incubation experiments.

chick yolk sac membrane = assay: Chick yolk sac membrane angiogenesis assay; format: in vivo; details: for Positive responses (%) / Positive responses (positive/total): assessed after 24 hr; for angiogenic response in the chick yolk sac membrane, in words: in vivo
Excerpt: Dried methylcellulose pellets containing the test samples and control pellets (lacking the test samples) were placed on the yolk sac membrane of 6-day chick embryos, as described in Materials and Methods in Example 1. The elicited reaction was checked after six hours and assessed after 24 hr by observation of living embryos with a stereomicroscope. […] After assessment at 24 hr, selected membranes were fixed in 2.5% EM grade glutaraldehyde in 0.2 M phosphate buffer, pH 7.4. These preparations were then stained with 1% toluidine blue and photographed using a Leica DM LB microscope. […] Bar=250 μm.
Chick yolk sac membrane angiogenesis assay. The assay was performed essentially as described by Gush et al (1990) J. Med. Engineer. Tech. 14, 205–209. Accordingly, four-day-old fertilised eggs were cracked in a tumbler, covered with a Petri dish and incubated at 37° C. Two days later dried methylcellulose pellets containing the test samples and control pellets (lacking the test samples) were placed on the yolk sac membrane. The elicited angiogenic reaction was assessed after 24 hr by observation of living embryos with a stereomicroscope. Selected membranes were fixed in 2.5% EM grade glutaraldehyde in 0.2 M phosphate buffer (pH 7.4), dissected, stained with 1% toluidine blue and mounted on glass slides for photomicroscopy.

[5] = tested on: human skin fibroblasts (SK319 and FSF44); assay: Pre-incubation of cells with IGDS, subsequent migration in native collagen gel assay; format: cell-based
Description: Confluent cells on plastic tissue culture dishes were washed 3× with serum-free MEM (SF-MEM) and then incubated for various times with the indicated concentrations of IGDS (SEQ ID NO 2) in SF-MEM. They were then trypsinised and washed extensively by repeated (5×) cycles of centrifugation and resuspension in SF-MEM. The behaviour of these pre-incubated cells was assessed in the collagen gel assay in the absence of further IGDS (SEQ ID NO 2)(indicated as IGDS (SEQ ID NO 2) not in assay). […] Data were obtained from three experiments and are expressed as mean ±SD.
as §1

[6] = Genistein 10 μg/ml, PD98059 2.0 μM, PKA inhib 5 nM
[7] = Genistein 10 μg/ml, PD98059 2.0 μM, PKA inhib 5 nM, no pre-incubation, IGDS and inhibitor in assay (early and late events)
[8] = Genistein 10 μg/ml, PD98059 2.0 μM, PKA inhib 5 nM, pre-incubation with IGDS alone, inhibitor only in assay (late events)
[9] = Genistein 10 μg/ml, PD98059 2.0 μM, PKA inhib 5 nM, pre-incubation with IGDS and inhibitor, neither in assay (early events)
[10] = peptide 10.0 μ molar, no pre-incubation, IGDS and peptide in assay (early and late events)
[11] = peptide 10.0 μ molar, pre-incubation with IGDS alone, peptide only in assay (late events)
[12] = peptide 10.0 μ molar, pre-incubation with IGDS and peptide, neither in assay (early events)

O=c1c(-c2ccc(O)cc2)coc2cc(O)cc(O)c12 [Genistein]
Inhibitory activity: early events [1, 6]: early events: + | Inhibitory activity: late events [1, 6]: late events: − | inhibition at 10 µg/mL [1, 7]: 94.1 ± 6.5% | inhibition at 10 µg/mL [1, 8]: 0.9 ± 2.9% | inhibition at 10 µg/mL [1, 9]: 96.7 ± 4% | effect on IGDS-induced cell migration (late events), in words [1]: did not affect | effect on initial IGDS signalling (early events), in words [1]: selectively blocked

COc1cccc(-c2cc(=O)c3ccccc3o2)c1N [PD98059]
Inhibitory activity: early events [1, 6]: early events: + | Inhibitory activity: late events [1, 6]: late events: + | % inhibition [1, 7]: 99.8 ± 3.8% | % inhibition [1, 8]: 39.4 ± 5.0% | % inhibition [1, 9]: 90.5 ± 3.1% | effect on IGDS-induced cell migration (late events), in words [1]: blocked | effect on initial IGDS signalling (early events), in words [1]: blocked

Ile-Gly-Asp (IGD; listed as Homo sapiens)
concentration at which significant bioactivity (migration stimulation) is first manifest ([2]; collagen gel assay, FIG. 1A): 10 to 100 µM | effect on cell migration into native type I collagen gels [2]: stimulated cell migration

Ile-Gly-Asp-Gin (IGDQ; listed as Homo sapiens)
concentration at which significant bioactivity (migration stimulation) is first manifest ([2]; collagen gel assay, FIG. 1A): 0.1 µM | effect on cell migration into native type I collagen gels [2]: stimulated cell migration

Ile-Gly-Asp-Ser (IGDS; listed as Homo sapiens)
Fibroblasts (% field) (rat wound healing model; control 8.3 ± 6.7): 18.2 ± 9.4 % field | Vessels (per field) (rat wound healing model; control 15.3 ± 5.5): 26.7 ± 6.4 per field | effect on cell migration through gelatin-coated membranes [3]: devoid of activity | effect on cell migration through membranes coated with native collagen [3]: stimulated cell migration | activity on cell migration when present on its own ([4]; 0.01 μM (10^7 fM), FIG. 3A): inactive | effect upon cell migration of co-incubation with the gelatin-binding domain ([4]; suboptimal concentrations of each, FIG. 3A): additive effect | Positive responses (%) (chick yolk sac membrane; 5 ng/pellet): (50) % | Positive responses (positive/total) (chick yolk sac membrane; 5 ng/pellet): 3/6 | Positive responses (%) (chick yolk sac membrane; 50 ng/pellet): (64) % | Positive responses (positive/total) (chick yolk sac membrane; 50 ng/pellet): 7/11 | Positive responses (%) (chick yolk sac membrane; 250 ng/pellet): (77) % | Positive responses (positive/total) (chick yolk sac membrane; 250 ng/pellet): 10/13 | Positive responses (%) (chick yolk sac membrane; 1000 ng/pellet): (64) % | Positive responses (positive/total) (chick yolk sac membrane; 1000 ng/pellet): 9/14 | Positive responses (%) (chick yolk sac membrane; 3000 ng/pellet): (78) % | Positive responses (positive/total) (chick yolk sac membrane; 3000 ng/pellet): 7/9 | angiogenic response in the chick yolk sac membrane, in words (chick yolk sac membrane): elicited an angiogenic response; also recorded: stimulates angiogenesis | angiogenic response elicited by pellet (chick yolk sac membrane; pellet containing 1.0 μg, 6-day chick embryos, 24 hr, FIG. 7): positive angiogenic response | persistence of effect on cell migration after pre-incubation ([5]; assayed in absence of further IGDS, dependent on pre-incubation time and peptide concentration, FIG. 4): persistent | elevated migratory behaviour still manifest following passages in vitro ([5]; pre-incubated cells, data not shown): 1–2 passages | concentration at which significant bioactivity (migration stimulation) is first manifest ([2]; collagen gel assay, FIG. 1A): 0.1 µM | shape of dose-response ([2]; collagen gel assay, FIG. 1A): bell-shaped dose-response | effect on cell migration into native type I collagen gels [2]: stimulated cell migration

RGDS: structurally related RGDS tetrapeptide (synthetic peptide) (Peptide related to IGDS)
effect on cell migration through gelatin-coated membranes [3]: inactive | effect on cell migration through membranes coated with native collagen [3]: inactive | effect on IGDS-induced cell migration (late events), in words [1]: inhibited | effect on initial IGDS signalling (early events), in words [1]: inhibited | Inhibitory activity: early events ([1]; peptide 10.0 μ molar): early events: + | Inhibitory activity: late events ([1]; peptide 10.0 μ molar): late events: + | % inhibition [1, 10]: 92.3 ± 2.1% | % inhibition [1, 11]: 96.5 ± 5.7% | % inhibition [1, 12]: 96.2 ± 4.8% | concentrations required for inhibition of IGDS activity ([4]; FIG. 3B, 3C): pmolar | effect on the migration stimulating activity of IGDS (co-incubation) ([4]; FIG. 3B, 3C): effectively inhibited | Positive responses (%) (chick yolk sac membrane; 3000 ng/pellet): (9) % | Positive responses (positive/total) (chick yolk sac membrane; 3000 ng/pellet): 1/11 | angiogenic response in the chick yolk sac membrane, in words (chick yolk sac membrane): inactive | effect on cell migration into native type I collagen gels [2]: devoid of migration stimulating activity

RGES: RGES synthetic peptide (Peptide related to IGES)
effect on IGDS-induced cell migration (late events), in words [1]: inactive | effect on initial IGDS signalling (early events), in words [1]: inactive | Inhibitory activity: early events ([1]; peptide 10.0 μ molar): early events: − | Inhibitory activity: late events ([1]; peptide 10.0 μ molar): late events: − | % inhibition [1, 10]: 1.2 ± 2.1% | % inhibition [1, 11]: 0.3 ± 2.8% | % inhibition [1, 12]: −1.0 ± 3.0% | effect on the migration stimulating activity of IGDS (co-incubation) ([4]; FIG. 3B, 3C): no effect | Positive responses (%) (chick yolk sac membrane; 3000 ng/pellet): (10) % | Positive responses (positive/total) (chick yolk sac membrane; 3000 ng/pellet): 1/10 | angiogenic response in the chick yolk sac membrane, in words (chick yolk sac membrane): inactive
